In brackets after ≈: the same amount, converted by molar mass.

One may read the IC90 as the concentration at which the effect reaches the 90% level.

Type in all cases: cell-based
Assay [1] deals with Enterococcus faecalis (ATCC29212). Nature of the assay: Microtitre plate assay, IC90 determination (EFA 29212). As to conditions: 90% inhibitory concentration for bacterial growth, 37° C., resazurin fluorescence; for IC90: Enterococcus faecalis, ATCC29212, 24 h; for IC90 EFA 29212: 24 hours. How it is done: (§1) The bacteria used in this study were grown overnight in flasks containing 100 ml Mueller-Hinton Broth (Becton Dickinson—cat. no. 275730) in sterile de-ionized water, with shaking, at 37° C. Stocks (0.5 ml/tube) were stored at −70° C. until use. Bacteria titrations were performed in microtiter plates and colony forming units (CFUs) were determined. In general, an inoculum level of approximately 100 CFUs was used for susceptibility testing.
(§2) Flat-bottom, sterile 96-well plastic microtiter plates were filled with 180 μl of sterile deionized water, supplemented with 0.25% BSA. Subsequently, stock solutions (7.8× final test concentration) of compounds were added in 45 μl volumes in column 2 Serial five-fold dilutions (45 μl in 180 μl) were made directly in the microtiter plates from column 2 to reach column 11. Untreated control samples with (column 1) and without (column 12) inoculum were included in each microtiter plate. Depending on the bacteria type, approximately 10 to 60 CFU per well of bacteria inoculum (100 TCID50), in a volume of 100 μl in 2.8× Mueller-Hinton broth medium, was added to the rows A to H, except column 12. The same volume of broth medium without inoculum was added to column 12 in row A to H. The cultures were incubated at 37° C. for 24 hours under a normal atmosphere (incubator with open air valve and continuous ventilation). At the end of incubation, one day after inoculation, the bacterial growth was quantitated fluorometrically. Therefore resazurin (0.6 mg/ml) was added in a volume of 20 μl to all wells 3 hours after inoculation, and the plates were re-incubated overnight. A change in colour from blue to pink indicated the growth of bacteria. The fluorescence was read in a computer-controlled fluorometer (Cytofluor Biosearch) at an excitation wavelength of 530 nm and an emission wavelength of 590 nm. The % growth inhibition achieved by the compounds was calculated according to standard methods. The IC90 (expressed in μg/ml) was defined as the 90% inhibitory concentration for bacterial growth.

In assay [2] the test system is Pseudomonas aeruginosa (ATCC27853). In words: Microtitre plate assay, IC90 determination (PAE 27853). Conditions: 90% inhibitory concentration for bacterial growth, 37° C., resazurin fluorescence; for IC90: Pseudomonas aeruginosa, ATCC27853, 24 h; for IC90 PAE 27853: 24 hours. As to the method: as §1, §2
In general terms: Resazurin is reduced to fluorescent resorufin, in cell work by metabolically active cells.

The subject of assay [3] is Streptococcus pneumoniae (ATCC6305). In words: Microtitre plate assay, IC90 determination (SPN 6305). As to conditions: 90% inhibitory concentration for bacterial growth, 37° C., resazurin fluorescence; for IC90 SPN 6305: 24 hours; for IC90: Streptococcus pneumoniae, ATCC6305, 24 h. As to the method: as §1, §2
The subject of assay [4] is Streptococcus pyogens (ATCC8668). Nature of the assay: Microtitre plate assay, IC90 determination (SPY 8668). As to conditions: 90% inhibitory concentration for bacterial growth, 37° C., resazurin fluorescence; for IC90: Streptococcus, ATCC8668, 24 h; for IC90 SPY 8668: 24 hours. As to the method:
as §1, §2

Assay [5] concerns Staphylococcus aureus (ATCC29213). In words: Microtitre plate assay, IC90 determination (STA 29213). As to conditions: 90% inhibitory concentration for bacterial growth, 37° C., resazurin fluorescence; for IC90 STA 29213: 24 hours; for IC90: Staphylococcus aureus, ATCC29213, 24 h. How it is done: as §1, §2

Turning to `COc1nc2ccc(Br)cc2cc1C(c1ccc(Cl)cc1)C(O)(CCc1ccc(C)cc1)CCN(C)C` (stereo not drawn) [Compound 87], the concentration for an effect of 90% (IC90) in assay [1] stood at 11.6 µg/mL (≈ 19.9 µM); in assay [2], 9.2 µg/mL (≈ 15.8 µM); in assay [4] it was 5.2 µg/mL (≈ 8.93 µM). Besides, the “IC90 SPN 6305” value in assay [3] is 2.3 µg/mL (≈ 3.95 µM). The “IC90 STA 29213” value in assay [5] came out at 9.2 µg/mL (≈ 15.8 µM).

Regarding `COc1nc2ccc(-c3cccnc3)cc2cc1C(c1ccccc1)C(O)(CCc1ccccc1)CCN(C)C` (stereo not drawn) [Compound 36], the IC90 in assay [1] is 42.2 µg/mL (≈ 79.4 µM); in assay [2], 42.2 µg/mL (≈ 79.4 µM); in assay [3], 1.7 µg/mL (≈ 3.2 µM); in assay [4] it was 16.8 µg/mL (≈ 31.6 µM); in assay [5], 1.7 µg/mL (≈ 3.2 µM).

With `COc1nc2ccc(Br)cc2cc1C(c1ccccc1)C(O)(CCc1ccc(C(F)(F)F)cc1)CCN(C)C` (racemic) [Compound 46], the “IC90 EFA 29212” value in assay [1] amounted to 1.9 µg/mL (≈ 3.16 µM). Besides, in assay [2], the “IC90 PAE 27853” value turned out to be 1.9 µg/mL (≈ 3.16 µM). The “IC90 SPN 6305” value in assay [3] was 0.5 µg/mL (≈ 0.831 µM). Also, the “IC90 SPY 8668” value in assay [4] turned out to be 1.9 µg/mL (≈ 3.16 µM). In addition, in assay [5], the “IC90 STA 29213” value amounted to 1.9 µg/mL (≈ 3.16 µM).

As to `CN(C)CCC(O)(CCc1ccccc1)C(c1ccc(Cl)cc1)c1cc2cc(Br)ccc2nc1N(C)C` (stereo not drawn) [Compound 33], the IC90 in assay [1] came to 1.8 µg/mL (≈ 3.1 µM); in assay [2], 1.8 µg/mL (≈ 3.1 µM); in assay [3], 0.8 µg/mL (≈ 1.38 µM); in assay [4], 1.5 µg/mL (≈ 2.58 µM); in assay [5] it was 1.8 µg/mL (≈ 3.1 µM).

With `COc1nc2ccc(Br)cc2cc1C(c1ccccc1)C(O)(CCN(C)C)Cc1cccc2ccccc12` (stereo not drawn) [Compound 42], the IC90 in assay [1] amounted to 22.7 µg/mL (≈ 39.9 µM); in assay [2] it was 10.1 µg/mL (≈ 17.7 µM); in assay [4], 4.5 µg/mL (≈ 7.9 µM). Further, the “IC90 SPN 6305” value in assay [3] amounted to 2.3 µg/mL (≈ 4.04 µM). In addition, in assay [5], the “IC90 STA 29213” value is 9.0 µg/mL (≈ 15.8 µM).

On to `CSc1nc2ccc(Br)cc2cc1C(c1ccc(Cl)cc1)C(O)(CCc1ccccc1)CCN(C)C` (stereo not drawn) [Compound 31], for which the IC90 in assay [1] amounted to 58.4 µg/mL (≈ 100 µM); in assay [2] it was 9.3 µg/mL (≈ 15.9 µM); in assay [4], 1.9 µg/mL (≈ 3.25 µM). Moreover, the “IC90 SPN 6305” value in assay [3] was 0.4 µg/mL (≈ 0.685 µM). The “IC90 STA 29213” value in assay [5] came to 58.4 µg/mL (≈ 100 µM).

Turning to `COc1ccc(C(c2cc3cc(Br)ccc3nc2OC)C(O)(CCc2ccccc2)CCN(C)C)cc1` (stereo not drawn) [Compound 73], the “IC90 EFA 29212” value in assay [1] was determined as 8.9 µg/mL (≈ 15.8 µM). In assay [2], the “IC90 PAE 27853” value was 8.0 µg/mL (≈ 14.2 µM). Further, the 90% effect level in assay [3] (IC90) was put at 1.8 µg/mL (≈ 3.19 µM). Moreover, the “IC90 SPY 8668” value in assay [4] came to 4.0 µg/mL (≈ 7.1 µM). Moreover, in assay [5], the “IC90 STA 29213” value came to 7.1 µg/mL (≈ 12.6 µM).

Consider `CSc1nc2ccc(Br)cc2cc1C(c1ccccc1)C(O)(CCc1ccccc1)CCN(C)C` (stereo not drawn) [Compound 11], for which the IC90 in assay [1] came to 43.7 µg/mL (≈ 79.5 µM); in assay [2], 43.7 µg/mL (≈ 79.5 µM); in assay [4] it was 8.7 µg/mL (≈ 15.8 µM). Moreover, the “IC90 SPN 6305” value in assay [3] stood at 3.9 µg/mL (≈ 7.1 µM). Besides, the “IC90 STA 29213” value in assay [5] was determined as 11.0 µg/mL (≈ 20 µM).

`COc1nc2ccc(Br)cc2cc1C(c1cccc(Cl)c1)C(O)(CCc1ccc(F)cc1)CCN(C)C` (stereo not drawn) [Compound 80]: the “IC90 EFA 29212” value in assay [1] is 8.3 µg/mL (≈ 14.2 µM). In assay [2], the “IC90 PAE 27853” value worked out at 1.9 µg/mL (≈ 3.24 µM). In assay [3], the “IC90 SPN 6305” value is 1.9 µg/mL (≈ 3.24 µM). Further, the “IC90 SPY 8668” value in assay [4] was found to be 3.3 µg/mL (≈ 5.63 µM). The “IC90 STA 29213” value in assay [5] is 9.3 µg/mL (≈ 15.9 µM).

As for `COc1nc2ccc(Br)cc2cc1C(c1ccccc1)C(O)(CCc1ccc(F)cc1)CCN(C)C` (racemic) [Compound 49], in assay [1], the “IC90 EFA 29212” value stood at 43.8 µg/mL (≈ 79.4 µM). Besides, the “IC90 PAE 27853” value in assay [2] turned out to be 43.8 µg/mL (≈ 79.4 µM). For the same compound, the “IC90 SPN 6305” value in assay [3] was determined as 2.2 µg/mL (≈ 3.99 µM). For the same compound, the “IC90 SPY 8668” value in assay [4] worked out at 43.8 µg/mL (≈ 79.4 µM). The “IC90 STA 29213” value in assay [5] was 11.0 µg/mL (≈ 19.9 µM).

As for `COc1nc2ccc(Br)cc2cc1C(c1cccc(C)c1)C(O)(CCc1ccc(F)cc1)CCN(C)C` (stereo not drawn) [Compound 82], the “IC90 EFA 29212” value in assay [1] was 1.8 µg/mL (≈ 3.18 µM). Further, in assay [2], the “IC90 PAE 27853” value came out at 1.8 µg/mL (≈ 3.18 µM). For the same compound, the “IC90 SPN 6305” value in assay [3] turned out to be 2.3 µg/mL (≈ 4.07 µM). The “IC90 SPY 8668” value in assay [4] was found to be 1.8 µg/mL (≈ 3.18 µM). For the same compound, the “IC90 STA 29213” value in assay [5] came to 1.8 µg/mL (≈ 3.18 µM).

Turning to `COc1nc2ccc(Br)cc2cc1C(c1ccccc1)C(O)(CCc1ccccc1)CCN(C)C` (stereo not drawn) [Compound 20], the “IC90 EFA 29212” value in assay [1] amounted to 1.7 µg/mL (≈ 3.19 µM). For the same compound, in assay [2], the “IC90 PAE 27853” value was 1.7 µg/mL (≈ 3.19 µM). In addition, in assay [3], the “IC90 SPN 6305” value is 1.1 µg/mL (≈ 2.06 µM). Also, in assay [4], the “IC90 SPY 8668” value turned out to be 1.7 µg/mL (≈ 3.19 µM). Also, the IC90 in assay [5] worked out at 8.5 µg/mL (≈ 15.9 µM).

Values taken from patent US20130030017A1, “QUINOLINE DERIVATIVES AS ANTIBACTERIAL AGENTS” (priority 2005, published 2013).
